In patent US10675267B2, “Methods for detection and eradication of myeloid leukemia stem cells” (priority 2015, dated 2020):
Entries after “also recorded” stand apart in the source; their conditions may differ.

Columns and labels:
MOLM-13 cells = assay: In vitro splicing of endogenous transcripts (qRT-PCR, RT-PCR) in MOLM-13; format: cell-based
Description: For qRT-PCR analysis of relative total mRNA expression levels or splice isoform-specific expression analyses, cDNA was synthesized using 50 ng-1 […] of template RNA in 20 μL reaction volumes using the First-Strand SUPERSCRIPT™ III Reverse Transcriptase Supermix (Life Technologies) followed by incubation with RNase H according to the manufacturer's protocol and as described previously. All cDNA products were stored at −20° C. Splice isoform-specific primers for PTK2B-202 were designed to bind to unique exon junctions for this transcript, which lacks exon 24. All primers (Table 2) were diluted to 10 μM working dilutions in DNase/RNase-free water. qRT-PCR was performed in duplicate using cDNA (1 μL reverse transcription product per reaction) on an iCycler (Bio-Rad, Hercules, Calif.) using SYBR® GREENER™ Super Mix (Life Technologies) in 25-μL volume reactions containing 0.2 μM of each forward and reverse primer. Cycling conditions were as follows: 50° C. for 2 minutes, then 95° C. for 8 minutes and 30 seconds, followed by 40 cycles of 95° C. for 15 seconds and 60° C. for 60 seconds. Melting curve analysis was performed on each plate according to the manufacturer's instructions. For standard qRT-PCR, human HPRT mRNA transcript levels were used to normalize Ct values obtained for each gene, and relative expression levels were calculated using the 2^−ddCt method. To ensure validity of results, only Ct values <35 were used in gene expression analyses. All primer sets were tested in a no-template control (NTC) reaction containing only water instead of cDNA, and all gave Ct values >35 in NTC reactions.
For evaluation of in vitro splicing activity of endogenous transcripts in HEK293 or a sAML cell line, MOLM-13 (mycoplasma-free and cytogenetically-authenticated cell lines obtained from DMSZ), cells were plated in complete media (DMEM containing 10% FBS for HEK293 and RPMI containing 20% FBS for MOLM-13). The next day, FD-895, 17S-FD-895 or DMSO vehicle controls were added at doses ranging from 0.01-10 μM for 4 hrs of treatment. Cells were lysed in RLT buffer (Qiagen) and processed for RNA extraction and subsequent PCR analyses using primers specific for DNAJB1 or MCL1 (Table 2). For all experiments in cell line, cells obtained from the vendors were frozen down in bulk at low passage numbers and used within 20 passages to minimize risk of cell line misidentification or acquisition of additional chromosomal abnormalities.
For qRT-PCR analysis of relative total mRNA expression levels or splice isoform-specific expression analyses, cDNA was synthesized using 50 ng-1 […] reaction volumes using the First-Strand SUPERSCRIPT™ III Reverse Transcriptase Supermix (Life Technologies) followed by incubation with RNase H according to the manufacturer's protocol and as described previously (Abrahamsson et al., 2009; Crews et al., 2015). All cDNA products were stored at −20° C. Splice isoform-specific primers for PTK2B-202 were designed to bind to unique exon junctions for this transcript, which lacks exon 24. All primers (Supplemental Experimental Procedures Table) were diluted to 10 ∝M working dilutions in DNase/RNase-free water. qRT-PCR was performed in duplicate using cDNA (1 ∝Λ reverse transcription product per reaction) on an iCycler (Bio-Rad, Hercules, Calif.) using SYBR® GREENER™ Super Mix (Life Technologies) in 25-∝A volume reactions containing 0.2 ∝M of each forward and reverse primer. Cycling conditions were as follows: 50° C. for 2 minutes, then 95° C. for 8 minutes and 30 seconds, followed by 40 cycles of 95° C. for 15 seconds and 60° C. for 60 seconds. Melting curve analysis was performed on each plate according to the manufacturer's instructions. For standard qRT-PCR, human HPRT mRNA transcript levels were used to normalize Ct values obtained for each gene, and relative expression levels were calculated using the 2-ddCt method. To ensure validity of results, only Ct values <35 were used in gene expression analyses. […]

[1] = test system: human CD34+ cell fractions from spleens and bone marrow of AML-37 engrafted mice; assay: RNA-Seq of human CD34+ cells pooled from spleens and bone marrow of treated sAML-engrafted mice; format: in vivo
Description: In vivo molecular response to therapeutic splicing modulation. RNA-seq analysis was performed in human CD34+ cell fractions isolated from spleens and bone marrow of 17S-FD-895-treated sAML-engrafted mice. […] The data are set forth in Table 4 following, which formed the basis for calculation of FIG. 17G.
Xenograft sequencing data of 2×150 bp paired end reads were trimmed using cutadapt 1.8.1, aligned using STAR 2.5.0b against the GRCh37 reference FASTA sequence with the Ensembl GRCh37.75 GTF as a splice junction source. Strandedness was inferred using modulate “infer_experiment.py” from the RSeQC package (Wang et al., 2012). Then, transcripts were quantified using Cufflinks v2.2.1 (Trapnell et al., 2010) against the Ensembl GRCh37.75 GTF reference with bias correction against the GRCh37 reference FASTA. This yielded Cufflinks FPKM values. Isoforms sharing gene names were summed to yield gene FPKMs. FPKM values were transformed to generate log 2(FPKM+1) for all transcripts in the sAML isoform signature (FIGS. 11D, 11E, 12D), comparing vehicle versus 10 mg/kg treatment groups for spleen and bone marrow. Then, a heatmap was generated using all transcripts showing a L2FC>0.5 in both tissues, occurring in the opposite direction of the L2FC transcript expression values in sAML versus normal age-matched controls (i.e. L2FC>1 in sAML, L2FC<−0.5 in 10 mg/kg-treated spleen and bone marrow).
Gene expression data in FPKM was submitted to GSEA to determine significant KEGG pathways, and enrichment plots describing ranked gene expression in those pathways. Additional analyses were performed using custom gene sets including genes associated with the top differentially expressed transcript signatures in aged (“aged up”) versus young (“young up”) HPC and sAML (“sAML up”) versus aged (“aged up”) HPC (FIGS. 11D, 11E, 12D). We acknowledge our use of the gene set enrichment analysis, GSEA software, and Molecular Signature Database (see website: broad.mit.edu). […]

## CC[C@H](OC)[C@@H](C)[C@H]1O[C@@H]1[C@@H](O)[C@H](C)/C=C/C=C(\C)[C@H]1OC(=O)C[C@H](O)CC[C@@](C)(O)[C@@H](OC(C)=O)/C=C/[C@@H]1C (stereo in doubt) [Formula 17S-FD-895, 17S-FD-895]
MOLM-13 cells; MOLM-13, 1 μM, 30 mins-24 hrs, qRT-PCR, 95% C.I.
  EC50 of the 1 μM treatment condition (time course of DNAJB1 intron 2 retention): 3.2 to 6.5 h
MOLM-13 cells; MOLM-13, 0.01-10 μM, 4 hrs
  MCL1-S expression (qRT-PCR): low doses of 17S-FD-895 increased MCL1-S expression, this effect was reversed at high doses
MOLM-13 cells; MOLM-13, short-term treatment
  PTK2B-202 expression (isoform-specific qRT-PCR): reduced expression
MOLM-13 cells; MOLM-13 sAML cells
  time at which the increase in DNAJB1 intron 2 levels occurred after initiation of treatment: 30 min
MOLM-13 cells; MOLM-13 sAML cells, 0.01-10 μM 4 hrs, time course 30 mins-24 hrs
  DNAJB1 intron 2 retention: rapid and dose-dependent increase; also recorded: time- and dose-dependent increase
MOLM-13 cells; MOLM-13 versus HEK293, 4 hrs
  MCL1 splicing pattern (RT-PCR, primers flanking exon 2): triggered MCL1 exon 2 skipping; also recorded: increased intron retention predominantly in sAML cells (MOLM-13)
[1]; 10 mg/kg treated mice versus vehicle
  GSEA of the “aged up” signature: enriched
[1]; higher treatment doses, bone marrow and spleen
  expression of sAML-specific transcripts STAT6-016 and ITGB2-201: reverted to a normal expression pattern
[1]; spleen and bone marrow, after treatment
  PTK2B transcripts: decreased
